The record followed here is patent US10088490B2, “Assay for analytes using multiple receptors” (Siemens Healthcare Diagnostics Inc., priority 2010, dated 2018).

Holding throughout (type): binding
The test system of test [1] is Antibody A specific for cortisol (clone 16DC/17.7, IgG1κ). Nature of the test: LOCI competitive cortisol immunoassay, cross-reactivity screening with Biotinylated Antibody A Reagent. The following applies: 100% A Biotinylated Antibody; steroid-stripped serum with cortisol (5 ng/dL). As to the method:
(§1) The antibodies were subjected to analytical size exclusion chromatography prior to any manipulations.
(§2) NHS-PEO4-Biotin was dissolved fresh at 10 mg/mL in Antibody Dialysis Buffer. […] The mixture was rocked at 25° C. for exactly 3 hours. A 200 mM solution of glycine was prepared by dissolving 750 mg glycine in Antibody Dialysis Buffer to a total volume of 50 mL. At the end of the 3-hour biotinylation reaction, 1.52 mL of the 200 mM glycine solution was added to the reaction mixture. The quenched reaction mixture was rocked an additional 60 minutes at 25° C.
(§3) The biotinylated antibody was then purified using preparatory HPLC using Antibody Dialysis Buffer as the mobile phase. […] This reagent was designated as the Biotinylated Antibody Reagent.
(§4) The assay used for screening purposes was conducted on the DIMENSION® VISTA® instrument (system) (Siemens Healthcare Diagnostics Inc., Newark Del.). Initially, 20 μL Biotinylated Antibody Reagent with 15 μL system water was added to the vessel. After 22 seconds, 15 μL sample with 15 μL system water were added to the vessel. After almost 4 minutes, 20 μL Chemibead Reagent with 15 μL system water were added to the vessel. Approximately 7 minutes later, 20 μL Sensibead Reagent with 135 μL system water was added to the vessel. The LOCI® read was taken after approximately 5 minutes. The assay from the first reagent addition to the final read took approximately 16 minutes. The contents of the vessel when the final read is taken were as follows: 2 ng/mL Biotinylated Antibody Reagent, 4 μg/mL Chemibead Reagent, 56 μg/mL Sensibead Reagent, and […] sample. The assay is a competitive format, which means that the greater the concentration of analyte in the sample, the smaller is the signal generation. This is because a detectable complex is formed by the Biotinylated Antibody Reagent, Chemibead Reagent, and Sensibead Reagent in the absence of analyte. The presence of analyte decreases the proportion of Biotinylated Antibody Reagent that is free to form detectable complexes.
(§5) Initial testing used Biotinylated Antibody A Reagent with the other reagents and the methodology described above to analyze the steroid-stripped serum with cortisol. The panel of 34 cross-reactants were individually added to the steroid-stripped serum with a defined concentration of cortisol (5 ng/dL) and assayed. Cross-reactivity data were calculated as follows:
(§6) [formula] The same testing was performed using Biotinylated Antibody L Reagent. The compilation of the percent cross-reactivities for the 34 compounds is referred to as the cross-reactivity profile. The apparent cortisol concentration is the cortisol value obtained when testing a sample containing cortisol and the interfering substance by the above test method that also detects the interfering substance to some degree.

In test [2] the test system is mixture of Biotinylated Antibody A Reagent and Biotinylated Antibody L Reagent. The experiment in a line: LOCI competitive cortisol immunoassay, cross-reactivity with mixtures of Biotinylated Antibody A and L Reagents. The settings on record: for percent cross reactivity: steroid-stripped serum with cortisol. As for the experimental part:
as §4, §5, §6
A further study was performed by mixing Biotinylated Antibody A Reagent with Biotinylated Antibody L Reagent in a 50:50 mixture; 80% Biotinylated Antibody A Reagent: 20% Biotinylated Antibody L Reagent; 75% Biotinylated Antibody A Reagent: 25% Biotinylated Antibody L Reagent; and 70% Biotinylated Antibody A Reagent: 30% Biotinylated Antibody L Reagent. […] These reagents were used to test cross-reactivity in stripped serum with cortisol.

The test system of test [3] is Antibody L specific for cortisol (clone XM210, IgG2a). The experiment in a line: LOCI competitive cortisol immunoassay, cross-reactivity screening with Biotinylated Antibody L Reagent. The following applies: 100% L Biotinylated Antibody; steroid-stripped serum with cortisol (5 ng/dL). As to the method:
as §1, §2, §3, §4, §5, §6

The mark [4] stands for this setting: 70% A 30% L Biotinylated Antibody.
Where [5] appears, read: 75% A 25% L Biotinylated Antibody.
Where [6] appears, read: 80% A 20% L Biotinylated Antibody.

With `C[C@]12CCC(=O)C=C1CC[C@@H]1[C@@H]2C(=O)C[C@@]2(C)[C@H]1CC[C@]2(O)C(=O)CO` [cortisone], the percent cross reactivity in test [1] was determined as 41.7%; in test [2] (setting [4]), 2.5%; in test [2] (setting [5]), 2.8%; in test [2] (setting [6]), 3.1%; in test [3] it was 1.4%. For the same compound, the “decrease of percent cross-reactivity” value in test [2] (incorporation of 25% Biotinylated Antibody Reagent L versus 100% A) was “greater than 90%”.

In the case of `C[C@]12CC(=O)[C@H]3[C@@H](CCC4=CC(=O)CC[C@@]43C)[C@@H]1CC[C@@H]2C(=O)CO` [dehydrocorticosterone], the percent cross reactivity is on record as 0.6% in test [1]; 0.7% in test [2] (setting [4]); 0.7% in test [2] (setting [5]); 0.7% in test [2] (setting [6]); 0.8% in test [3].

On to `CC(=O)OCC(=O)[C@@]1(O)CC[C@H]2[C@@H]3CCC4=CC(=O)CC[C@]4(C)[C@@]3(F)[C@@H](O)C[C@@]21C` [fluorocortisone acetate], for which the percent cross reactivity in test [1] came out at 35.3%; in test [2] (setting [4]) it was 27.8%; in test [2] (setting [5]) it was 20.9%; in test [2] (setting [6]), 17.0%; in test [3], 69.3%.

As for `C[C@]12C=CC(=O)C=C1CC[C@@H]1[C@@H]2[C@@H](O)C[C@@]2(C)[C@H]1CC[C@]2(O)C(=O)CO` [prednisolone], the percent cross reactivity is given as 13.6% in test [1]; 12.4% in test [2] (setting [4]); 12.2% in test [2] (setting [5]); 12.4% in test [2] (setting [6]); 10.2% in test [3].

`C[C@]12C=CC(=O)C=C1CC[C@@H]1[C@@H]2C(=O)C[C@@]2(C)[C@H]1CC[C@]2(O)C(=O)CO` [prednisone]: the percent cross reactivity is recorded as 26.5% in test [1]; 1.1% in test [2] (setting [4]); 1.3% in test [2] (setting [5]); 1.5% in test [2] (setting [6]); 0.6% in test [3].

Consider `CC(=O)[C@H]1CC[C@H]2[C@@H]3CCC4=CC(=O)CC[C@]4(C)[C@H]3CC[C@]12C` [progesterone], for which the percent cross reactivity in test [1], in test [2] (setting [4]), in test [2] (setting [5]), in test [2] (setting [6]) and in test [3] was 0.6% throughout.

For `C[C@]12CCC(=O)C=C1CC[C@@H]1[C@@H]2[C@@H](O)C[C@@]2(C)[C@H]1CC[C@]2(O)C(=O)COS(=O)(=O)O` [sulphate 21-cortisol], the percent cross reactivity in test [1] stood at 22.5%; in test [2] (setting [4]), 0.6%; in test [2] (setting [5]) it was 0.7%; in test [2] (setting [6]) it was 0.9%; in test [3] it was 0.2%.

Take `C[C@]12CC[C@@H](O)C[C@H]1CC[C@@H]1[C@@H]2CC[C@@]2(C)[C@H]1CC[C@]2(O)C(=O)CO` [tetrahydro-11-deoxycortisol]: the percent cross reactivity in test [1] came out at 0.3%; in test [2] (setting [4]) it was 0.2%; in test [2] (setting [5]), 0.2%; in test [2] (setting [6]), 0.2%; in test [3], 0.2%.

Regarding `C[C@]12CC[C@@H](O)C[C@H]1CC[C@@H]1[C@@H]2[C@@H](O)C[C@@]2(C)[C@H]1CC[C@]2(O)C(=O)CO` [tetrahydrocortisol], the percent cross reactivity in test [1] amounted to 0.0%; in test [2] (setting [4]), 0.1%; in test [2] (setting [5]) it was 0.1%; in test [2] (setting [6]), 0.0%; in test [3] it was 0.1%.

For the compound `C[C@]12CC[C@@H](O)C[C@H]1CC[C@@H]1[C@@H]2C(=O)C[C@@]2(C)[C@H]1CC[C@]2(O)C(=O)CO` [tetrahydrocortisone], the percent cross reactivity in test [1] came to 0.5%; in test [2] (setting [4]) it was 0.2%; in test [2] (setting [5]) it was 0.2%; in test [2] (setting [6]), 0.3%; in test [3], 0.1%.

As to `C[C@]12CC[C@@H](O)C[C@H]1CC[C@@H]1[C@@H]2[C@@H](O)C[C@@]2(C)[C@H]1CC[C@]2(O)[C@@H](O)CO` [α-cortol], the percent cross reactivity was determined as 0.2% in test [1]; 0.7% in test [2] (setting [4]); 0.6% in test [2] (setting [5]); 0.5% in test [2] (setting [6]); 1.0% in test [3].

As for `C[C@]12CC[C@@H](O)C[C@H]1CC[C@@H]1[C@@H]2C(=O)C[C@@]2(C)[C@H]1CC[C@]2(O)[C@@H](O)CO` [α-cortolone], the percent cross reactivity in test [1], in test [2] (setting [4]), in test [2] (setting [5]), in test [2] (setting [6]) and in test [3] was 0.0% in each case.

On to `C[C@]12CC[C@@H](O)C[C@H]1CC[C@@H]1[C@@H]2[C@@H](O)C[C@@]2(C)[C@H]1CC[C@]2(O)[C@H](O)CO` [β-cortol], for which the percent cross reactivity in test [1], in test [2] (setting [4]), in test [2] (setting [5]), in test [2] (setting [6]) and in test [3] was 0.0% throughout.

Consider `C[C@]12CC[C@@H](O)C[C@H]1CC[C@@H]1[C@@H]2C(=O)C[C@@]2(C)[C@H]1CC[C@]2(O)[C@H](O)CO` [β-cortolone], for which the percent cross reactivity in test [1], in test [2] (setting [4]), in test [2] (setting [5]), in test [2] (setting [6]) and in test [3] was 0.0% each time.
